Laboratory results from PMC11990108, “Anti-HIV Activity of Tigliane Derivatives from Euphorbia nicaeensis Roots” (Molecules, 2025).
Read-outs that look alike come from different tables or passages of the source.

What was measured:
[1] = cellular toxicity in uninfected MT-4 cells (MTS method); assay type: cell-based; conditions: human
Protocol: (§1) The MT-4 cell line was a kind gift from Dr. L. Montagner (at that time at the Pasteur Institute; Paris, France). This cell line was cultured in RPMI medium (Thermo Fisher Scientific, Waltham, MA, USA) containing 10% fetal bovine serum (FBS; Thermo Fisher Scientific, Waltham, MA, USA) and 2 mM L-glutamine (Thermo Fisher Scientific, Waltham, MA, USA).
(§2) To determine the anti-HIV-activity of the compounds, MT-4 cells (5 × 10^4 cells) were treated with 5-fold dilutions of the compounds for 30 min at 37 °C, 5% CO2 in 96-well-plates. After 30 min, cells were infected with 100 TCID50 (tissue culture infective dose 50%) HIV-1 (NL4.3) or HIV-2 (ROD) virus stocks. After five days of incubation (37 °C, 5% CO2), the cytopathic effect was checked microscopically, and cell viability was evaluated using the MTS/PES-based CellTiter 96 Aqueous One Solution Cell Proliferation assay (Promega Madison, WI, USA). Absorbance at 490 nm was measured using the VersaMax ELISATM microplate reader (Molecular Devices) and analyzed with the SoftMax Pro software (Molecular Devices, Version 4.0, www.moleculardevices.com, accessed on 10 January 2015). The IC50-values were calculated based on the absorbance signals measured in the negative (i.e., untreated and uninfected cells) and positive (i.e., untreated virus-infected cells) control samples.
The CC50 or 50% cellular cytoxic concentration of compounds was determined from the reduction of viability of uninfected MT-4 cells or PBMCs exposed to the compounds, as measured by the MTS method described above.

HIV-1 NL4.3 = test: anti-HIV replication assay, HIV-1 NL4.3 in MT-4 cells (MTS/PES viability readout); assay type: cell-based
Protocol: as §1
(§3) The HIV-1 strain NL4.3 (X4) and HIV-2 strain ROD (X4/R5) were obtained from the National Institute of Allergy and Infectious Disease AIDS program (Bethesda, MD, USA) and the Medical Research Council (MRC, London, UK), respectively. The HIV-1 strain HE (X4/R5) was originally isolated from a AIDS patient and was routinely cultured in MT-4 cells. The 50% tissue culture infectious doses of the virus stocks were used in the infection assays.
as §2

HIV-2 ROD = test: anti-HIV replication assay, HIV-2 ROD in MT-4 cells (MTS/PES viability readout); assay type: cell-based; conditions: Human immunodeficiency virus 2, MT4, 120 h, read-out: IC50 HIV-2
Protocol: as §1, §3, §2

HIV-1 = tested on: HIV-1; set-up: method as in PMID 32229336, PMID 21561135, PMID 33172265, PMID 34445872; conditions: other tiglianes from the literature; ref [25],[26],[27],[28],[29]; read-out: IC50 anti-HIV-1 activity; cited from earlier work
[2] = Human immunodeficiency virus 1, MT4, 120 h, read-out: IC50 HIV-1
[3] = Human immunodeficiency virus 1, MT4, read-out: IC50 values, anti-HIV activity

CC(=O)O[C@@]12[C@H](OC(=O)c3ccccc3)[C@@H](C)[C@]3(O)[C@@H]4C=C(C)C(=O)[C@@H]4CC(C)=C[C@H]3[C@@H]1C2(C)C [Compound 1, 13α-Acetyloxy-12β-benzoyloxy-4-epi-4,20-dideoxyphorbol]
CC50 at 5 days [1]: 42 µM
IC50 (HIV-1 NL4.3; [2]): > 42 µM
IC50 (HIV-2 ROD): 9.4 ± 1.4 µM

CCCCCCCC(=O)O[C@@]12[C@H](OC(=O)c3ccccc3)[C@@H](C)[C@]3(O)[C@@H]4C=C(C)C(=O)[C@@]4(O)[C@H](O)C(CO)=C[C@H]3[C@@H]1C2(C)C [stelleracin C]
IC50 (HIV-1): 0.0023 µM

CC1=C[C@H]2[C@@H]3C(C)(C)[C@]3(OC(=O)CC(C)C)[C@H](OC(=O)c3ccccc3)[C@@H](C)[C@]2(O)[C@@H]2C=C(C)C(=O)[C@@H]2C1 [Compound 3, 12β-Benzoyloxy-13α-isovaleryloxy-4-epi-4,20-dideoxyphorbol]
CC50 at 5 days [1]: 17.6 ± 0.3 µM
IC50 (HIV-1 NL4.3; [2]): > 18 µM
IC50 (HIV-2 ROD): > 18 µM

CC1=C[C@H]2[C@@H]3C(C)(C)[C@]3(OC(=O)C(C)C)[C@H](OC(=O)c3ccccc3)[C@@H](C)[C@]2(O)[C@@H]2C=C(C)C(=O)[C@@H]2C1 [Compound 5, 12β-benzoyloxy-13α-isobutanoyloxy-4-epi-4,20-dideoxyphforbol]
CC50 at 5 days [1]: 33.5 ± 0.4 µM
IC50 (HIV-1 NL4.3; [2]): > 34 µM
IC50 (HIV-2 ROD): 4.6 ± 2.3 µM

CC(=O)O[C@@H]1[C@@H](C)[C@]2(O)[C@@H]3C=C(C)C(=O)[C@@H]3CC(C)=C[C@H]2[C@@H]2C(C)(C)[C@]12OC(=O)CC(C)C [Compound 4, 12β-Acetyloxy-13α-isovaleryloxy-4-epi-4,20-dideoxyphorbol]
CC50 at 5 days [1]: 52 µM
IC50 (HIV-1 NL4.3; [2]): > 52 µM
IC50 (HIV-2 ROD): > 52 µM

CCCCCCCCCCCCCCCC(=O)O[C@@]12C[C@@H](C)[C@@]3(O)[C@@H](C=C(CO)C[C@]4(O)C(=O)C(C)=C[C@@H]34)[C@@H]1C2(C)C [12-deoxyphorbol-13-hexadecanoate]
IC50 (HIV-1): 0.022 µM

CC(=O)OCC1=C[C@H]2[C@@H]3C(C)(C)[C@]3(OC(C)=O)[C@H](OC(=O)c3ccccc3)[C@@H](C)[C@]2(O)[C@@H]2C=C(C)C(=O)[C@@H]2C1 [Compound 8, 13α,20-diacetylohy-12β-benzoyloxy-4-epi-4-deoxyphorbol]
CC50 at 5 days [1]: 20.8 ± 5.6 µM
IC50 (HIV-1 NL4.3; [2]): 3.3 ± 1.8 µM
IC50 (HIV-1 NL4.3; [3]): 1.1 to 7.47 µM
IC50 (HIV-2 ROD): 1.1 ± 0.8 µM

c1cc(CN2CCCNCCNCCCNCC2)ccc1CN1CCCNCCNCCCNCC1 [AMD3100, reference compound]
CC50 at 5 days [1]: > 10 µM
IC50 (HIV-1 NL4.3; Human immunodeficiency virus 1, MT4, 120 h, HIV-1 NL4.3 replication in MT-4 cells, five days, read-out: IC50 HIV-1): 0.008 ± 0.002 µM
IC50 (HIV-2 ROD; HIV-2 ROD replication in MT-4 cells, five days): 0.0075 ± 0.0005 µM

CC(=O)O[C@@]12[C@H](OC(=O)c3ccccc3)[C@@H](C)[C@]3(O)[C@@H]4C=C(C)C(=O)[C@H]4CC(C)=C[C@H]3[C@@H]1C2(C)C [Compound 2, 13α-Acetyloxy-12β-benzoyloxy-4,20-dideoxyphorbol]
CC50 at 5 days [1]: 94 µM
IC50 (HIV-1 NL4.3; [2]): 7.5 ± 0.2 µM
IC50 (HIV-1 NL4.3; [3]): 1.1 to 7.47 µM
IC50 (HIV-2 ROD): 1.7 ± 1.3 µM

C[C@H](Cn1cnc2c(N)ncnc21)OCP(=O)(O)O [PMPA, reference compound]
CC50 at 5 days [1]: > 100 µM
IC50 (HIV-1 NL4.3; [2]): 2.4 ± 0.7 µM
IC50 (HIV-2 ROD): 0.7 ± 0.5 µM

CC(=O)O[C@@H]1[C@@H](C)[C@]2(O)[C@@H]3C=C(C)C(=O)[C@@H]3CC(C)=C[C@H]2[C@@H]2C(C)(C)[C@]12OC(=O)C(C)C [Compound 6, 12β-acetyloxy-13α-isobutanoyloxy-4-epi-4,20-dideoxyphorbol]
CC50 at 5 days [1]: 101 µM
IC50 (HIV-1 NL4.3; [2]): > 101 µM
IC50 (HIV-2 ROD): > 101 µM
